Experimental data from US7390831B2, “Tetracyclic steroid derivatives useful as progesterone receptor modulators” (Janssen Pharmaceutica N.V., priority 2006, dated 2008).
Like-named read-outs stand apart in the source and are kept apart here.

Assays:
[1] = system: A549 Human lung carcinoma cells; test: A549 Human Lung Cell Assay (transfected cells, dexamethasone challenge, luciferase read-out); assay type: cell-based; details: test compound 10 min then dexamethasone challenge, 24 h, Luc-assay, read-out: A 549 IC50
Method: A549Human Lung Cell Assay
A549Human lung carcinoma cells were grown in F-12K Nutrient Mixture containing 10% (v/v) fetal bovine serum (FBS; Invitrogen), 2 mM glutamine and 0.15% sodium dicarbonate (Invitrogen).
A549 cells were split 1 to 3 in 175 cm tissue culture flask. The cells were incubated at 37° C. in CO2 incubator until the cells were 95% confluent (typically 24-30 hours).
The following solutions were prepared in sterile tubes: (a) Solution A 1.5 μg/ml of DNA in 8.5 ml OPTI-MEM I Reduced Serum Medium. (GIBCO cat# 31985) and (b) Solution B: 6 μl/ml of DMRIE-C Reagent into […] OPTI-MEM I. The two solutions were combined and mixed gently, then incubated at room temperature for 40 minutes.
The A549 cells prepared above were washed with […] of OPTI-MEM I. The medium was removed and 17 ml of the lipid-DNA complex solution was overlayed onto cells. The cells ere then incubated for 16 h at 37° C. in CO2 incubator. The DNA-containing medium was removed and 30 ml of growth medium was added. (5% Charcoal treated FBS) After 5-6 h, the cells were seeded in a 96 well plate and the cells incubated overnight at 37° C. in CO2 incubator.
To each well was then added 5 μl of test compounds and the cells incubated at 37° C. for 10 min. 5 μL of dexamathasone (CAS [50-02-2]), was then added to each well for challenger and the cells incubated at 37° C. in CO2 incubator for 24 h. 100 μl of Luc-assay buffer was then added into each cell well and the cells incubated for 30 min at room temperature. A 150 μL sample from each well was then transferred into a DYNEX Microlitel plate and read on Top-counter.
(§1) Representative compounds of the present invention were tested according to the procedures described in Examples 45 and 46 above, with results as listed in Table 2 below.

[2] = system: T47D human breast cancer cells; test: T47D Human Breast Cancer Cells Assay (alkaline phosphatase, luminescence); assay type: cell-based
Method: T47D Human Breast Cancer Cells Assay
T47D human breast cancer cells were grown in RPMI medium without phenol red (Invitrogen) containing 10% (v/v) heat-inactivated fetal bovine serum (FBS; Hyclone), 1% (v/v) penicillin-streptomycin (Invitrogen), 1% (w/v) glutamine (Invitrogen), and […] insulin (Sigma). Incubation conditions were 37° C. in a humidified 5% (v/v) carbon dioxide environment.
The cells were plated in 96-well tissue culture plates at 10,000 cells per well in assay medium [RPMI medium without phenol red (Invitrogen) containing 5% (v/v) charcoal-treated FBS (Hyclone) and 1% (v/v) penicillin-streptomycin (Invitrogen)]. Two days later, the medium was decanted and test compound or control were added at a final concentration of 0.1% (v/v) dimethyl sulfoxide in fresh assay medium. Twenty-four hours later, an alkaline phosphatase assay was performed using a SEAP kit (BD Biosciences Clontech, Palo Alto, Calif.). Briefly, the medium was decanted and the cells were fixed for 30 minutes at room temperature with 5% (v/v) formalin (Sigma). The cells were washed once with room temperature Hank's buffered saline solution (Invitrogen). Equal volumes (0.05 mL) of 1× Dilution Buffer, Assay Buffer and 1:20 substrate/enhancer mixture were then added. After 1 hour incubation at room temperature in the dark, the lysate was transferred to a white 96-well plate (Dynex) and luminescence was read using a LuminoSkan Ascent (Thermo Electron, Woburn, Mass.).
as §1

[3] = Homo sapiens, T47D, 24 h, read-out: T47D IC50 (nM), T47D cells, 24 h with test compound, alkaline phosphatase assay (SEAP kit)
[4] = read-out: T47D IC50, T47D cells, 24 h with test compound, alkaline phosphatase assay (SEAP kit)

Structure (SMILES) | IC50 ([1]; Homo sapiens, A549, A549 cells) [nM] | IC50 [2, 3] [nM] | IC50 ([1]; A549 cells) [nM] | IC50 [2, 4] [nM]
CSc1ccc([C@H]2OC[C@]3(C)C(C#Cc4ccccc4)=CCC3C3CCC4=CC(=O)CCC4=C32)cc1 (stereo partly drawn) [Compound 11, 12a-Methyl-10-(4-methylsulfanyl-phenyl)-1-phenylethynyl 3a,3b,4,5,9,10,12,12a-octahydro-3H,8H-11-oxa-naphtho[2,1-e]azulen-7-one] | > 3000 | > 1000 |  | 
C#C[C@]1(O)CCC2C3CCC4=CC(=O)CCC4=C3[C@@H](c3ccc(OC)cc3)OC[C@@]21C (stereo partly drawn) [Compound 12, 1-Ethynyl-1-hydroxy-10-(4-methoxy-phenyl)-12a-methyl-2,3,3a,3b,4,5,9,10,12,12a-decahydro-1H,8H-11-oxa-naphtho[2,1-e]azulen-7-one] | 118 | > 1000 |  | 
C#C[C@]1(O)CCC2C3CCC4=CC(=O)CCC4=C3[C@H](c3ccc(OC)cc3)OC[C@@]21C (stereo partly drawn) [Compound 13, 1-Ethynyl-1-hydroxy-10-(4-methoxy-phenyl)-12a-methyl 2,3,3a,3b,4,5,9,10,12,12a-decahydro-1H,8H-11-oxa-naphtho[2,1-e]azulen-7-one] | 367 | > 1000 |  | 
CC#C[C@]1(O)CCC2C3CCC4=CC(=O)CCC4=C3[C@@H](c3ccc(OC)cc3)OC[C@@]21C (stereo partly drawn) [Compound 14, 1-Hydroxy-10-(4-methoxy-phenyl)-12a-methyl-1-prop-1-ynyl-2,3,3a,3b,4,5,9,10,12,12a-decahydro-1H,8H-11-oxa-naphtho[2,1-e]azulen-7-one] | 46 | > 1000 |  | 
CC#C[C@]1(O)CCC2C3CCC4=CC(=O)CCC4=C3[C@H](c3ccc(OC)cc3)OC[C@@]21C (stereo partly drawn) [Compound 15, 1-Hydroxy-10-α(4-methoxy-phenyl)-12a-methyl-1-prop-1-ynyl-2,3,3a,3b,4,5,9,10,12,12a-decahydro-1H,8H-11-oxa-naphtho[2,1-e]azulen-7-one] | 583 | > 1000 |  | 
COc1ccc([C@H]2OC[C@@]3(C)C(CC[C@@]3(O)C#Cc3ccccc3)C3CCC4=CC(=O)CCC4=C32)cc1 (stereo partly drawn) [Compound 16, 1-Hydroxy-10-(4-methoxy-phenyl)-12a-methyl-1-phenylethynyl-2,3,3a,3b,4,5,9,10,12,12a-decahydro-1H,8H-11-oxa-naphtho[2,1-e]azulen-7-one] |  |  | > 3000 | > 1000
C=CC[C@]1(O)CCC2C3CCC4=CC(=O)CCC4=C3[C@@H](c3ccc(OC)cc3)OC[C@@]21C (stereo partly drawn) [Compound 17, 1-Allyl-1-hydroxy-10-(4-methoxy-phenyl)-12a-methyl 2,3,3a,3b,4,5,9,10,12,12a-decahydro-1H,8H-11-oxa-naphtho[2,1-e]azulen-7-one] | 114 | > 1000 |  | 
C=CC[C@]1(O)CCC2C3CCC4=CC(=O)CCC4=C3[C@H](c3ccc(OC)cc3)OC[C@@]21C (stereo partly drawn) [Compound 18, 1-Allyl-1-hydroxy-10α-(4-methoxy-phenyl)-12a-methyl 2,3,3a,3b,4,5,9,10,12,12a-decahydro-1H,8H-11-oxa-naphtho[2,1-e]azulen-7-one] | > 3000 | > 1000 |  | 
COc1ccc([C@H]2OC[C@@]3(C)C(CC[C@@]3(O)C#CC(F)(F)F)C3CCC4=CC(=O)CCC4=C32)cc1 (stereo partly drawn) [Compound 19, 1-Hydroxy-10-(4-methoxy-phenyl)-12a-methyl-1-trifluoroprop-1-ynyl-2,3,3a,3b,4,5,9,10,12,12a-decahydro-1H,8H-11-oxa-naphtho[2,1-e]azulen-7-one] | > 3000 | > 1000 |  | 
COc1ccc([C@@H]2OC[C@@]3(C)C(CC[C@@]3(O)C#CC(F)(F)F)C3CCC4=CC(=O)CCC4=C32)cc1 (stereo partly drawn) [Compound 20, 1-Hydroxy-10-[…]-(4-methoxy-phenyl)-12a-methyl-1-trifluoroprop-1-ynyl-2,3,3a,3b,4,5,9,10,12,12a-decahydro-1H,8H-11-oxa-naphtho[2,1-e]azulen-7-one] | > 3000 | > 1000 |  | 
COc1ccc([C@H]2OC[C@@]3(C)C(CC[C@@]3(O)C#Cc3ccc(C(F)(F)F)cc3)C3CCC4=CC(=O)CCC4=C32)cc1 (stereo partly drawn) [Compound 21, 1-Hydroxy-10-(4-methoxy-phenyl)-12a-methyl-1-(4-trifluoromethylphenylethynyl)-2,3,3a,3b,4,5,9,10,12,12a-decahydro-1H,8H-11-oxa-naphtho[2,1-e]azulen-7-one] |  |  | > 1000 | > 1000
COc1ccc([C@@H]2OC[C@@]3(C)C(CC[C@@]3(O)C#Cc3ccc(C(F)(F)F)cc3)C3CCC4=CC(=O)CCC4=C32)cc1 (stereo partly drawn) [Compound 22, 1-Hydroxy-10-(4-methoxy-phenyl)-12a-methyl-1-(4-trifluoromethylphenylethynyl)-2,3,3a,3b,4,5,9,10,12,12a-decahydro-1H,8H-11-oxa-naphtho[2,1-e]azulen-7-one] | > 3000 | > 1000 |  | 
C=C(CCO)[C@]1(O)CCC2C3CCC4=CC(=O)CCC4=C3[C@@H](c3ccc(OC)cc3)OC[C@@]21C (stereo partly drawn) [Compound 24] | 771 | 176 |  | 130
